Assay results reported in EP0908457B1, “3-(1,2-benzisothiazol- and isoxazol-5-Y1)-2,4(1H,3H)-pyrimidinedione or thione and 3-(1,2-benzisothiazol- and isoxazol-5-y1)-4(3H)-pyrimidinone or thione herbicidal agents” (BASF AKTIENGESELLSCHAFT, priority 1997, dated 1999).

Legend:
[1] = tested on: Oryza sativa, (L.) Tebonnet; assay: Rice tolerance to post-transplant applications under flooded paddy conditions (Example 187), ORYSAT (Rice, Tebonnet); settings: rated three to four weeks after treatment
Cyperus iria = assay: Preemergence weed control under flooded paddy conditions, CYPIR (Rice Flatsedge); assay type: in vivo; settings: preemergence, flooded paddy, rated three to four weeks after treatment; also: meaning of each grade not given here
[2] = tested on: Monochoria vaginalis, Presl.; assay: Preemergence weed control under flooded paddy conditions, MOOVA (Monochoria); assay type: in vivo; settings: preemergence, flooded paddy, rated three to four weeks after treatment; also: meaning of each grade not given here
Sagittaria pygmaea, L. = assay: Preemergence weed control under flooded paddy conditions, SAGPY (Arrowhead (Pygmaea)); assay type: in vivo; settings: preemergence, flooded paddy, rated three to four weeks after treatment; also: meaning of each grade not given here
[3] = tested on: Cyperus serotinus, Rottb.; assay: Preemergence weed control under flooded paddy conditions, CYPSE (Flatsedge); assay type: in vivo; settings: preemergence, rated three to four weeks after treatment; also: meaning of each grade not given here
[4] = tested on: Echinochloa oryzoides (Ard.) Fritsch.; assay: Preemergence weed control under flooded paddy conditions, ECHORC (Watergrass (Calif.)); assay type: in vivo; settings: preemergence, flooded paddy, rated three to four weeks after treatment; also: meaning of each grade not given here

| Structure (SMILES) | herbicidal effect rating, ORYSAT (rice tolerance) ([1]; 0.0313 kg/ha) | herbicidal effect rating, ORYSAT (rice tolerance) ([1]; 0.0625 kg/ha) | herbicidal effect rating, ORYSAT (rice tolerance) ([1]; 0.1250 kg/ha) | herbicidal effect rating, ORYSAT (rice tolerance) ([1]; 0.2500 kg/ha) | herbicidal effect rating, CYPIR (Cyperus iria; 0.0313 kg/ha) | herbicidal effect rating, CYPIR (Cyperus iria; 0.0625 kg/ha) | herbicidal effect rating, CYPIR (Cyperus iria; 0.1250 kg/ha) | herbicidal effect rating, CYPIR (Cyperus iria; 0.2500 kg/ha) | herbicidal effect rating, MOOVA ([2]; 0.0313 kg/ha) | herbicidal effect rating, MOOVA ([2]; 0.0625 kg/ha) | herbicidal effect rating, MOOVA ([2]; 0.1250 kg/ha) | herbicidal effect rating, MOOVA ([2]; 0.2500 kg/ha) | herbicidal effect rating, SAGPY (Sagittaria pygmaea, L.; 0.0313 kg/ha) | herbicidal effect rating, SAGPY (Sagittaria pygmaea, L.; 0.0625 kg/ha) | herbicidal effect rating, SAGPY (Sagittaria pygmaea, L.; 0.1250 kg/ha) | herbicidal effect rating, SAGPY (Sagittaria pygmaea, L.; 0.2500 kg/ha) | herbicidal effect rating, CYPSE ([3]; 0.0313 kg/ha) | herbicidal effect rating, CYPSE ([3]; 0.0625 kg/ha) | herbicidal effect rating, CYPSE ([3]; 0.1250 kg/ha) | herbicidal effect rating, CYPSE ([3]; 0.2500 kg/ha) | other results |
| --- | --- | --- | --- | --- | --- | --- | --- | --- | --- | --- | --- | --- | --- | --- | --- | --- | --- | --- | --- | --- | --- |
| COc1ccc(C)cc1-c1nsc2ccc(-n3c(=O)cc(C)n(C)c3=O)cc12 [Example 24, 3-[3-(6-Methoxy-m-tolyl)-1,2-benzisothiazol-5-yl]-1,6-dimethyl-2,4(1H,3H)-pyrimidinedione] | 2.0 | 2.0 | 3.0 | 4.0 | 0.0 | 2.0 | 6.0 | 8.0 | 4.0 | 8.0 | 9.0 | 9.0 | 0.0 | 0.0 | 0.0 | 0.0 | 0.0 | 0.0 | 1.0 | 4.0 | herbicidal effect rating, ECHORC ([4]; 0.0313 kg/ha): 0.0; herbicidal effect rating, ECHORC ([4]; 0.0625 kg/ha): 0.0; herbicidal effect rating, ECHORC ([4]; 0.1250 kg/ha): 2.0; herbicidal effect rating, ECHORC ([4]; 0.2500 kg/ha): 7.0 |
| Cn1c(C(F)(F)F)cc(=O)n(-c2ccc3onc(-c4ccccc4)c3c2)c1=O [Example 25, 1-Methyl-3-(3-phenyl-1,2-benzisoxazol-5-yl)-6-(trifluoromethyl)-2,4(1H,3H)-pyrimidinedione] | 4.0 | 6.0 | 7.0 | 7.0 | 9.0 | 9.0 | 9.0 | 9.0 | 9.0 | 9.0 | 9.0 | 9.0 | 0.0 | 0.0 | 1.0 | 4.0 | 0.0 | 2.0 | 7.0 | 8.0 | herbicidal effect rating, ECHORC ([4]; 0.0313 kg/ha): 7.0; herbicidal effect rating, ECHORC ([4]; 0.0625 kg/ha): 9.0; herbicidal effect rating, ECHORC ([4]; 0.1250 kg/ha): 9.0; herbicidal effect rating, ECHORC ([4]; 0.2500 kg/ha): 9.0 |
| COC(=O)COc1c(C)cc(C)cc1-c1nsc2ccc(-n3c(=O)cc(C(F)(F)F)n(C)c3=O)cc12 [Example 26, Methyl {{6-{5-[3,6-dihydro-3-methyl-2,6-dioxo-4-(trifluoromethyl)-1(2H)-pyrimidinyl]-1,2-benzisothiazol-3-yl}-2,4-xylyl}oxy}acetate] | 3.0 | 4.0 | 6.0 | 9.0 | 6.0 | 8.0 | 9.0 | 9.0 | 9.0 | 9.0 | 9.0 | 9.0 | 0.0 | 0.0 | 2.0 | 9.0 | 0.0 | 4.0 | 2.0 | 9.0 | herbicidal effect rating, ECHORC ([4]; 0.0313 kg/ha): 7.0; herbicidal effect rating, ECHORC ([4]; 0.0625 kg/ha): 9.0; herbicidal effect rating, ECHORC ([4]; 0.1250 kg/ha): 9.0; herbicidal effect rating, ECHORC ([4]; 0.2500 kg/ha): 9.0 |
